# Laboratory results from patent US11357782B2, “Treprostinil administration by inhalation” (priority 2006, dated 2022).
# Entries after “also recorded” stand apart in the source; their conditions may differ.
# Tests used:
# [1] = system: patients with severe pulmonary hypertension; assay: Study ii) placebo controlled dose escalation study of inhaled treprostinil, hemodynamics and tolerability; details: for maximal decrease of PVR to: 6 min inhalation
# Protocol: Study ii) was a randomized, open-label, single blind, placebo controlled study. […] A total number of 31 patients inhaled either placebo or treprostinil; each patient received one inhalation. […] Inhalation time was 6 minutes in all groups.
# [2] = system: patients with moderate to severe precapillary pulmonary hypertension; assay: Acute vasodilator challenge during right heart catheter investigation: inhaled treprostinil applied by soft mist inhaler (Example 1); details: for CO (max) / HR (max) / SvO2 (max): highest value; for CO (max) / HR (max) / SvO2 (max) / PAP (min) / PVR (min) / SAP (min) / SVR (min) / SaO2 (min): mean ± SEM; for PAP (min): lowest value during 120 min observation; for PVR (min) / SAP (min) / SVR (min) / SaO2 (min): lowest value; for pulmonary vascular resistance (PVR) reduced to: Respimat SMI, mean±95% confidence interval
# Protocol: A study was conducted of acute vasodilator challenge during right heart catheter investigation to determine the safety, tolerability and pulmonary vasodilatory potency of inhaled treprostinil applied in seconds by a soft mist inhaler (SMI-TRE).
# Inhaled nitric oxide (20 ppm; n=45) and inhaled treprostinil sodium (TRE; n=41) or placebo (n=4) were applied once during right heart catheter investigation. TRE was delivered in 2 breaths (1000 μg/ml aerosol concentration; 30 μg dose; n=12), 3 breaths (1000 μg/ml; 45 μg; n=9) or 2 breaths (2000m/m1; 60 μg; n=20) from a Respimat® SMI. Pulmonary hemodynamics and blood gases were measured at defined time points, observation time following TRE application was 120 minutes.
# • A total number of 45 patients with moderate to severe precapillary pulmonary hypertension were enrolled. […] Disease etiologies were idiopathic PAH (iPAH) (n=13), PAH other (n=11), chronic thromboembolic pulmonary hypertension (CTEPH) (n=17) and pulmonary fibrosis (n=4).
# Baseline values were determined 20-30 minutes after placement of the catheter. Heart rate, pulmonary and systemic blood pressure and cardiac output were measured and blood gases were taken during each pharmacological intervention at defined time points. Pharmacological interventions included the inhalation of 20 ppm nitric oxide (NO) after evaluation of baseline parameters (n=45) and the consecutive inhalation of placebo (n=4), 30 μg SMI-TRE (n=12), 45 μg SMI-TRE (n=9) or 60 μg (n=20) SMI-TRE. Placebo and treprostinil was applied with the Respimat® SMI. For filling of this device with treprostinil sodium, the placebo solution was withdrawn from the device with a syringe and treprostinil solution was injected into the device under sterile conditions. Aerosol quality was controlled before and after refilling of the SMI devices by laser diffractometry, see e.g. Gessler T., Schmehl T., Hoeper M.M., Rose F., Ghofrani H.A., Olschewski H. et al. Ultrasonic versus jet nebulization of iloprost in severe pulmonary hypertension. Eur. Respir. J. 2001; 17:14-19 incorporated herein in its entirety. […] The aerosol volume delivered by one cycle from the SMI was 15 μl. The solution used for aerosol generation was prepared from treprostinil sodium salt using a standard protocol. The SMI was either filled with a concentration of 1000 μg/ml treprostinil sodium (one aerosol puff=15 μg TRE) or with 2000 μg/ml (one puff=30 μg TRE). The different doses were applied as 2 puffs 1000 μg/ml (30 μg), 3 puffs 1000m/m1 (45 μg) and 2 puffs 2000 μg/ml (60 μg). The placebo was inhaled as 2 puffs from a placebo-SMI. Hemodynamics and gas-exchange parameters were recorded for 120 minutes after TRE inhalation.
# [3] = system: patients with severe pulmonary hypertension; assay: Study iii) reduction of inhalation time at fixed 15 μg dose, pulsed ultrasonic nebulizer
# Protocol: Study iii) was a randomized, open-label, single blind study. The primary objective was to explore the shortest possible inhalation time for a 15 μg dose of inhaled treprostinil. A total of 48 patients inhaled one dose of TRE during right heart catheter investigation. The drug was applied in 18, 9, 3, 2 or 1 breaths. The aerosol was generated by a pulsed ultrasonic nebulizer (OPTINEB®, Nebutec, Elsenfeld, Germany) in cycles consisting of 2 seconds aerosol production (pulse) and 4 seconds pause. The device included an opto-acoustical trigger for the patient to synchronize the inspiration to the end of the aerosol pulse, thereby providing exact dosage. The TRE dose of 15 μg was either generated during 18 cycles (OPTINEB® filled with 100 μg/ml TRE, n=6), 9 cycles (200 μg/ml TRE, n=6), 3 cycles (600 μg/ml TRE, n=21), 2 cycles (1000m/m1 TRE, n=7) or 1 cycle (2000 μg/ml TRE, n=8). Hemodynamics and gas exchange were recorded for 120-180 minutes.
# [4] = 15 μg, 1 pulse, 2000 μg/ml, n=8
# [5] = 15 μg, 2 pulses, 1000 μg/ml, n=7
# [6] = 15 μg, 3 pulses, 600 μg/ml, n=21
# [7] = 15 μg, 9 pulses, 200 μg/ml, n=6
# [8] = 15 μg, 18 pulses, 100 μg/ml, n=6
compound,measurement,setting,value
CCCCC[C@H](O)CC[C@@H]1[C@H]2Cc3cccc(OCC(=O)[O-])c3C[C@H]2C[C@H]1O.[Na+] [TRE],cardiac output increased to a maximum of,[1]; 30 μg,106.8±3.2%
same,side effects,"[1]; 30 μg TRE, n=1 each",flushing; also recorded: mild transient bronchoconstriction
same,duration of hemodynamic changes,"[1]; 30 μg dose group, 3 hour observation period",had just returned to baseline within this period
same,maximal decrease of PVR to,"[1]; 30 μg, n=8",76.5±4.7 % of baseline values
same,cardiac output increased to a maximum of,[1]; 60 μg,122.9±4.3%
same,side effects,"[1]; 60 μg TRE, n=3",mild transient cough
same,duration of pulmonary vasodilation,"[1]; 60 μg and 90 μg (and 120 μg) TRE doses, surpassing observation period",> 3 h
same,maximal decrease of PVR to,"[1]; 60 μg, n=6",73.7±5.8 % of baseline values
same,cardiac output increased to a maximum of,[1]; 90 μg,114.3±4.8%
same,maximal decrease of PVR to,"[1]; 90 μg, n=6",73.3±4.3 % of baseline values
same,cardiac output increased to a maximum of,[1]; 120 μg TRE,111.3±3.9%
same,arterial oxygen saturation,"[1]; 120 μg TRE, all 3 patients",significantly decreased
same,side effects,"[1]; 120 μg TRE, n=1 each",moderate bronchoconstriction; also recorded: severe headache
same,maximal decrease of PVR to,"[1]; 120 μg, n=3",65.4±4.1 % of baseline values
same,gas exchange,[1]; doses up to 90 μg TRE,not affected
same,effects on systemic arterial pressure,[1]; even at the highest doses,only minor effects
same,taste of the aerosol,[1]; metacresol-containing TRE solution,bad taste of the TRE aerosol was reported by most patients
same,tolerated inhaled dose,[1]; single inhalation,up to 90 μg
same,120 minute area under the curve for PVR,[2]; 30 μg TRE,−870±940 min %
same,duration of effect on pulmonary vascular resistance,"[2]; 30 μg TRE, compared with 45 and 60 μg",somewhat shorter effect
same,CO (max),"[2]; 30 μg TRE, n=12",108.8 ± 3.8% of baseline values
same,HR (max),"[2]; 30 μg TRE, n=12",106.1 ± 2.9% of baseline values
same,SvO2 (max),"[2]; 30 μg TRE, n=12",102.4 ± 1.3% of baseline values
same,PAP (min),"[2]; 30 μg TRE, n=12",83.4 ± 3.2% of baseline values
same,PVR (min),"[2]; 30 μg TRE, n=12",84.4 ± 4.4% of baseline values
same,SAP (min),"[2]; 30 μg TRE, n=12",97.3 ± 1.9% of baseline values
same,SVR (min),"[2]; 30 μg TRE, n=12",97.7 ± 4.2% of baseline values
same,SaO2 (min),"[2]; 30 μg TRE, n=12",101 ± 0.3% of baseline values
same,pulmonary vascular resistance (PVR) reduced to,"[2]; 30 μg, 2 breaths 1000 μg/ml",84.4±8.7 % of baseline values
same,120 minute area under the curve for PVR,[2]; 45 μg TRE,−2450±2070 min %
same,CO (max),"[2]; 45 μg TRE, n=9",108.6 ± 5.6% of baseline values
same,HR (max),"[2]; 45 μg TRE, n=9",99.1 ± 2.4% of baseline values
same,SvO2 (max),"[2]; 45 μg TRE, n=9",104.5 ± 4.4% of baseline values
same,PAP (min),"[2]; 45 μg TRE, n=9",77.6 ± 6.8% of baseline values
same,PVR (min),"[2]; 45 μg TRE, n=9",71.4 ± 8.9% of baseline values
same,SAP (min),"[2]; 45 μg TRE, n=9",96.1 ± 1.5% of baseline values
same,SVR (min),"[2]; 45 μg TRE, n=9",92 ± 3.9% of baseline values
same,SaO2 (min),"[2]; 45 μg TRE, n=9",94.4 ± 1.8% of baseline values
same,pulmonary vascular resistance (PVR) reduced to,"[2]; 45 μg, 3 breaths 1000 μg/ml",71.4±17.5 % of baseline values
same,120 minute area under the curve for PVR,[2]; 60 μg TRE,−2000±900 min %
same,CO (max),"[2]; 60 μg TRE, n=20",103.8 ± 2.0% of baseline values
same,HR (max),"[2]; 60 μg TRE, n=20",101.1 ± 0.9% of baseline values
same,SvO2 (max),"[2]; 60 μg TRE, n=20",102 ± 1.0% of baseline values
same,PAP (min),"[2]; 60 μg TRE, n=20",79.5 ± 2.4% of baseline values
same,PVR (min),"[2]; 60 μg TRE, n=20",77.5 ± 3.7% of baseline values
same,SAP (min),"[2]; 60 μg TRE, n=20",93.6 ± 2.9% of baseline values
same,SVR (min),"[2]; 60 μg TRE, n=20",91.3 ± 2.1% of baseline values
same,SaO2 (min),"[2]; 60 μg TRE, n=20",95.8 ± 0.9% of baseline values
same,pulmonary vascular resistance (PVR) reduced to,"[2]; 60 μg, 2 breaths",77.5±7.2 % of baseline values
same,effect on systemic vascular resistance and pressure,[2]; 30-60 μg from Respimat SMI,very small and not clinically significant
same,systemic side effects,[2]; 30-60 μg from Respimat SMI,No systemic side effects
same,tolerability / side effects,"[2]; 30-60 μg from Respimat SMI, listed as SMI-TRE",No significant side effects; also recorded: well tolerated; also recorded: only mild and transient cough for a maximum of one minute
same,duration of PVR reduction / pulmonary vasodilation,"[2]; 45 and 60 μg, single inhalation of 2-3 breaths, outlasted observation time",> 120 min
same,cardiac output,[2]; 120 min observation period,significantly increased
same,gas exchange,[2]; 120 min observation period,not influenced
same,heart rate,[2]; 120 min observation period,rather unchanged
same,reported side effects,"[3]; 15 μg, 48 patients, cough n=6, headache n=2, jaw pain n=1",mild transient cough; also recorded: mild headache; also recorded: mild jaw pain
same,cardiac output,"[3]; 15 μg, all groups",moderately increased
same,systemic arterial pressure,"[3]; 15 μg, all groups",not significantly affected
same,PAP reduced to,[3]; [4],88±5.4%
same,PVR reduced to,[3]; [4],80.3±5.2%
same,PAP reduced to,[3]; [5],86±4%
same,PVR reduced to,[3]; [5],77.4±4.5%
same,PAP reduced to,[3]; [6],81.1±4.1%
same,PVR reduced to,[3]; [6],71.2±6.0%
same,PAP reduced to,[3]; [7],84.2±4.1%
same,PVR reduced to,[3]; [7],72.9±4.9%
same,PAP reduced to,[3]; [8],84.2±4.5%
same,PVR reduced to,[3]; [8],76.3±5.6%
same,concentration safely utilized without considerable side effects,"[3]; metacresol-free TRE solution, modified OPTINEB",≤ 2000 µg/mL
same,duration of pulmonary vasodilation,"[3]; single breath of 2000 μg/ml, 15 μg, compared to placebo inhalation",> 3 h
